Measurements as given in patent US12338237B2, “Derivatives having 1,2,3,4-tetrahydronaphthalene moiety or pharmaceutically acceptable salt thereof and pharmaceutical compositions comprising the same” (YUHAN CORPORATION, priority 2019, dated 2025).
Where two headings read alike, the source gives them in different places.

Legend:
[1] = molecular target: glucosylceramide synthase (GCS) (Homo sapiens (Human), UniProt Q16739); experiment: Evaluation of inhibitory activities against GCS (enzyme reaction with A549 cell lysate, NBD C6-ceramide, HPLC fluorescence); format: biochemical; conditions: GCS activity in A549 cell lysate, 37° C. for 90 minutes
Experimental: Ibiglustat, known as a GCS inhibitor, was used as a control.
After the cells attached to the culture dish were washed with phosphate buffered saline (PBS), the cells were scraped off with a cell scraper and then centrifuged (4000 rpm, 3 min, 4° C.) to collect the cells in a 50 ml tube. The cell pellets were suspended in a lysis buffer (50 mM HEPES, pH 7.3, containing 1× the protease/phosphatase inhibitor cocktail), lysed by sonication, and then the lysate was centrifuged (13000 rpm, 10 min, 4° C.). The obtained supernatant was used for the quantitative analysis of proteins. The amount of proteins was measured using the BCA protein assay kit, using bovine serum albumin as a standard.
Enzymatic reactions were initiated by sequentially adding the following reaction materials to a 96 deep-well plate. Thereafter, the enzymatic reactions were performed at 37° C. for 90 minutes.
The enzymatic reactions were stopped by adding 100 μl of chloroform/methanol (2:1, v/v). After vortexing for 15 seconds, each mixture was centrifuged (4000 rpm, 10 min, 18° C.). The lower layer (50 μl) was transferred to a new 96 deep-well plate and dried with a reduced concentrator.
Data analysis was performed by the following equations. % Area (Sample)=Area (GlcCer)/[Area (Cer)+Area (GlcCer)]×100 % GCS activity=[Area(Sample)−Area(ibiglustat)]/[Area(DMSO)−Area(ibiglustat)]×100

GM1 production = experiment: cells; format: cell-based

Chain of glucosylceramide synthase (GCS) (Q16739 whole entry, looked up): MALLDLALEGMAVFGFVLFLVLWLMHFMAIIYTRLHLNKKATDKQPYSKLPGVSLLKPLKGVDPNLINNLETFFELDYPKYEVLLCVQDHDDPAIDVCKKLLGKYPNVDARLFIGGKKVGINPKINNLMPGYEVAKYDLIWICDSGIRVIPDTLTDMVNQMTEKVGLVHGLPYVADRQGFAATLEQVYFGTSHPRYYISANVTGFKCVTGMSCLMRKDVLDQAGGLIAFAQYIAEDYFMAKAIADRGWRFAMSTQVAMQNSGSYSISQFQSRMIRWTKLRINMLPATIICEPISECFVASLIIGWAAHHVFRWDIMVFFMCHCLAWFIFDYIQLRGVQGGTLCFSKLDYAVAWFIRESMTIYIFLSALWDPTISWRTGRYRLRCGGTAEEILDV

Compound	IC50 [1] [nM]	IC50 (GM1 production; Homo sapiens, Jurkat, 72 h) [nM]	IC50 (GM1 production; read-out: IC50) [nM]
CCc1ccc(-c2ccc3c(c2)CCCC3NC(=O)O[C@@H]2CN3CCC2CC3)cc1 (stereo partly drawn) [Example 31, (S)-quinuclidin-3-yl (6-(4-ethylphenyl)-1,2,3,4-tetrahydronaphthalen-1-yl)carbamate]	6.58	2.92	–
CCCc1ccc(-c2ccc3c(c2)CCCC3NC(=O)O[C@@H]2CN3CCC2CC3)cc1 (stereo partly drawn) [Example 32, (S)-quinuclidin-3-yl (6-(4-propylphenyl)-1,2,3,4-tetrahydronaphthalen-1-yl)carbamate]	8.31	475	–
CCCCc1ccc(-c2ccc3c(c2)CCCC3NC(=O)O[C@@H]2CN3CCC2CC3)cc1 (stereo partly drawn) [Example 33, (S)-quinuclidin-3-yl (6-(4-butylphenyl)-1,2,3,4-tetrahydronaphthalen-1-yl)carbamate]	3.95	499	–
CC(C)c1ccc(-c2ccc3c(c2)CCCC3NC(=O)O[C@@H]2CN3CCC2CC3)cc1 (stereo partly drawn) [Example 34, (S)-quinuclidin-3-yl (6-(4-isopropylphenyl)-1,2,3,4-tetrahydronaphthalen-1-yl)carbamate]	6.1	298	–
CC(C)Cc1ccc(-c2ccc3c(c2)CCCC3NC(=O)O[C@@H]2CN3CCC2CC3)cc1 (stereo partly drawn) [Example 35, (S)-quinuclidin-3-yl (6-(4-isobutylphenyl)-1,2,3,4-tetrahydronaphthalen-1-yl)carbamate]	9.16	265	–
CC(C)(C)c1ccc(-c2ccc3c(c2)CCCC3NC(=O)O[C@@H]2CN3CCC2CC3)cc1 (stereo partly drawn) [Example 36, (S)-quinuclidin-3-yl (6-(4-(tert-butyl)phenyl)-1,2,3,4-tetrahydronaphthalen-1-yl)carbamate]	22.4	339	–
O=C(NC1CCCc2cc(-c3ccc(C4CC4)cc3)ccc21)O[C@H]1CN2CCC1CC2 (stereo partly drawn) [Example 37, (S)-quinuclidin-3-yl (6-(4-cyclopropyl)-1,2,3,4-tetrahydronaphthalen-1-yl)carbamate]	5.07	–	286
CCc1cccc(-c2ccc3c(c2)CCCC3NC(=O)O[C@@H]2CN3CCC2CC3)c1 (stereo partly drawn) [Example 38, (S)-quinuclidin-3-yl (6-(3-ethylphenyl)-1,2,3,4-tetrahydronaphthalen-1-yl)carbamate]	1.7	316	–
CC(C)(C)c1cccc(-c2ccc3c(c2)CCCC3NC(=O)O[C@@H]2CN3CCC2CC3)c1 (stereo partly drawn) [Example 39, (S)-quinuclidin-3-yl (6-(3-(tert-butyl)phenyl)-1,2,3,4-tetrahydronaphthalen-1-yl)carbamate]	2.88	849	–
CC(C)c1cccc(-c2ccc3c(c2)CCCC3NC(=O)O[C@@H]2CN3CCC2CC3)c1 (stereo partly drawn) [Example 40, (S)-quinuclidin-3-yl (6-(3-isopropylphenyl)-1,2,3,4-tetrahydronaphthalen-1-yl)carbamate]	1.77	218	–
CCc1ccccc1-c1ccc2c(c1)CCCC2NC(=O)O[C@@H]1CN2CCC1CC2 (stereo partly drawn) [Example 41, (S)-quinuclidin-3-yl (6-(2-ethylphenyl)-1,2,3,4-tetrahydronaphthalen-1-yl)carbamate]	9.08	292	–
O=C(NC1CCCc2cc(-c3ccc4c(c3)OC(F)(F)O4)ccc21)O[C@@H]1CN2CCC1CC2 (stereo partly drawn) [Example 42, (S)-quinuclidin-3-yl (6-(2,2-difluorobenzo[d][1,3]dioxol-5-yl)-1,2,3,4-tetrahydronaphthalen-1-yl)carbamate]	6.71	210	–
O=C(NC1CCCc2cc(-c3ccc4c(c3)OCCO4)ccc21)O[C@@H]1CN2CCC1CC2 (stereo partly drawn) [Example 43, (S)-quinuclidin-3-yl (6-(2,3-dihydrobenzo[b][1,4]dioxin-6-yl)-1,2,3,4-tetrahydronaphthalen-1-yl)carbamate]	6.06	616	–
O=C(NC1CCCc2cc(-c3ccc4c(c3)OCC4)ccc21)O[C@@H]1CN2CCC1CC2 (stereo partly drawn) [Example 44, (S)-quinuclidin-3-yl (6-(2,3-dihydrobenzofuran-6-yl)-1,2,3,4-tetrahydronaphthalen-1-yl)carbamate]	7.59	480	–
O=C(NC1CCCc2cc(-c3ccc(N4CCOCC4)cc3)ccc21)O[C@@H]1CN2CCC1CC2 (stereo partly drawn) [Example 45, (S)-quinuclidin-3-yl (6-(4-morpholinophenyl)-1,2,3,4-tetrahydronaphthalen-1-yl)carbamate]	21.3	152	–
COc1ccc(-c2ccc3c(c2)CCCC3NC(=O)O[C@@H]2CN3CCC2CC3)cc1 (stereo partly drawn) [Example 46, (S)-quinuclidin-3-yl (6-(4-methoxyphenyl)-1,2,3,4-tetrahydronaphthalen-1-yl)carbamate]	13	216	–
COc1cccc(-c2ccc3c(c2)CCCC3NC(=O)O[C@@H]2CN3CCC2CC3)c1 (stereo partly drawn) [Example 47, (S)-quinuclidin-3-yl (6-(3-methoxyphenyl)-1,2,3,4-tetrahydronaphthalen-1-yl)carbamate]	2.52	433	–

Compound	IC50 [1] [nM]	IC50 (GM1 production; Homo sapiens, Jurkat, 72 h) [nM]	IC50 (GM1 production; read-out: IC50) [nM]
COc1ccccc1-c1ccc2c(c1)CCCC2NC(=O)O[C@@H]1CN2CCC1CC2 (stereo partly drawn) [Example 48, (S)-quinuclidin-3-yl (6-(2-methoxyphenyl)-1,2,3,4-tetrahydronaphthalen-1-yl)carbamate]	3.02	362	–
O=C(NC1CCCc2cc(-c3ccncc3F)ccc21)O[C@@H]1CN2CCC1CC2 (stereo partly drawn) [Example 49, (S)-quinuclidin-3-yl (6-(3-fluoropyridin-4-yl)-1,2,3,4-tetrahydronaphthalen-1-yl)carbamate]	35	412	–
Cc1cc(-c2ccc3c(c2)CCCC3NC(=O)O[C@@H]2CN3CCC2CC3)ccn1 (stereo partly drawn) [Example 50, (S)-quinuclidin-3-yl (6-(2-methylpyridin-4-yl)-1,2,3,4-tetrahydronaphthalen-1-yl)carbamate]	33.5	2190	–
COc1cc(-c2ccc3c(c2)CCCC3NC(=O)O[C@@H]2CN3CCC2CC3)ccn1 (stereo partly drawn) [Example 51, (S)-quinuclidin-3-yl (6-(2-methoxypyridin-4-yl)-1,2,3,4-tetrahydronaphthalen-1-yl)carbamate]	9.42	426	–
O=C(NC1CCCc2cc(-c3cnc4[nH]ccc4c3)ccc21)O[C@@H]1CN2CCC1CC2 (stereo partly drawn) [Example 52, (S)-quinuclidin-3-yl (6-(1H-pyrrolo[2,3-b]pyridin-5-yl)-1,2,3,4-tetrahydronaphthalen-1-yl)carbamate]	31.8	22.7	–
O=C(NC1CCCc2cc(-c3cncnc3)ccc21)O[C@@H]1CN2CCC1CC2 (stereo partly drawn) [Example 53, (S)-quinuclidin-3-yl (6-(pyrimidin-5-yl)-1,2,3,4-tetrahydronaphthalen-1-yl)carbamate]	86.4	314	–
O=C(NC1CCCc2cc(-c3ccnc4[nH]ccc34)ccc21)O[C@@H]1CN2CCC1CC2 (stereo partly drawn) [Example 54, (S)-quinuclidin-3-yl (6-(1H-pyrrolo[2,3-b]pyridin-4-yl)-1,2,3,4-tetrahydronaphthalen-1-yl)carbamate]	61.8	216	–
O=C(NC1CCCc2ccc(-c3ccc(F)cc3)cc21)O[C@@H]1CN2CCC1CC2 (stereo partly drawn) [Example 55, (S)-quinuclidin-3-yl (7-(4-fluorophenyl)-1,2,3,4-tetrahydronaphthalen-1-yl)carbamate]	34.1	110	–
Cc1ccc(-c2ccc3c(c2)C(NC(=O)O[C@@H]2CN4CCC2CC4)CCC3)cc1 (stereo partly drawn) [Example 57, (S)-quinuclidin-3-yl (7-(p-tolyl)-1,2,3,4-tetrahydronaphthalen-1-yl)carbamate]	23.4	81.2	–
O=C(NC1CCCc2ccc(-c3cccc(F)c3)cc21)O[C@@H]1CN2CCC1CC2 (stereo partly drawn) [Example 58]	10.8	–	73.5
O=C(NC1CCCc2ccc(-c3ccccc3F)cc21)O[C@@H]1CN2CCC1CC2 (stereo partly drawn) [Example 61]	8.48	–	61.9
O=C(NC1CCCc2ccc(-c3ccccc3Cl)cc21)O[C@@H]1CN2CCC1CC2 (stereo partly drawn) [Example 62, (S)-quinuclidin-3-yl (7-(2-chlorophenyl)-1,2,3,4-tetrahydronaphthalen-1-yl)carbamate]	7.37	49.2	–
O=C(NC1CCCc2ccc(-c3ccccc3C(F)(F)F)cc21)O[C@@H]1CN2CCC1CC2 (stereo partly drawn) [Example 63, (S)-quinuclidin-3-yl (7-(2-(trifluoromethyl)phenyl)-1,2,3,4-tetrahydronaphthalen-1-yl)carbamate]	6.7	41.8	–
O=C(NC1CCCc2ccc(-c3ccc(F)c(F)c3)cc21)O[C@@H]1CN2CCC1CC2 (stereo partly drawn) [Example 64, (S)-quinuclidin-3-yl (7-(3,4-difluorophenyl)-1,2,3,4-tetrahydronaphthalen-1-yl)carbamate]	13	131	–
O=C(NC1CCCc2ccc(-c3ccc(F)cc3F)cc21)O[C@@H]1CN2CCC1CC2 (stereo partly drawn) [Example 65, (S)-quinuclidin-3-yl (7-(2,4-difluorophenyl)-1,2,3,4-tetrahydronaphthalen-1-yl)carbamate]	14.2	95.5	–
O=C(NC1CCCc2ccc(-c3cc(F)c(F)cc3F)cc21)O[C@@H]1CN2CCC1CC2 (stereo partly drawn) [Example 66, (S)-quinuclidin-3-yl (7-(2,4,5-trifluorophenyl)-1,2,3,4-tetrahydronaphthalen-1-yl)carbamate]	46.9	102	–
